# Data from ChEMBL document CHEMBL5500400, “Design and Discovery of a Potent and Selective Inhibitor of Integrin αvβ1” (J Med Chem, 2024).
# Columns and labels:
# Integrin alpha-V/beta-1 [1] = biological target: T1, Integrin alpha-V/beta-1 (Homo sapiens, UniProt P05556+P06756); test: Inhibition of recombinant human Integrin alphaVbeta1 using TMB as substrate incubated for 2 hrs in presence of fibronectin by ELISA; type: protein-complex assay
# [2] = Apparent permeability across apical to basolateral side in dog MDCK-MDR1 cells incubated for 60 mins by HPLC analysis; type: ADME, cell-based, Canis lupus familiaris
# [3] = Apparent permeability across basolateral to apical side in dog MDCK-MDR1 cells incubated for 60 mins by HPLC analysis; type: ADME, cell-based, Canis lupus familiaris
# Integrin alpha-V/beta-3 [4] = biological target: T2, Integrin alpha-V/beta-3 (Homo sapiens, UniProt P05106+P06756); test: Inhibition of recombinant human Integrin alphaVbeta3 using TMB as substrate incubated for 2 hrs in presence of vitronectin by ELISA; type: protein-complex assay
# Integrin alpha-V/beta-5 = Integrin alpha-V/beta-5 (Homo sapiens, UniProt P06756+P18084); test: Inhibition of recombinant human Integrin alphaVbeta5 using TMB as substrate incubated for 2 hrs in presence of fibronectin by ELISA; type: protein-complex assay
# Integrin alpha-V/beta-6 [5] = biological target: T3, Integrin alpha-V/beta-6 (Homo sapiens, UniProt P06756+P18564); test: Inhibition of recombinant human Integrin alphaVbeta6 using TMB as substrate incubated for 2 hrs in presence of LAP by ELISA; type: protein-complex assay
# Integrin alpha-V/beta-8 [6] = biological target: T4, Integrin alpha-V/beta-8 (Homo sapiens, UniProt P06756+P26012); test: Inhibition of recombinant human Integrin alphaVbeta8 using TMB as substrate incubated for 2 hrs in presence of LAP by ELISA; type: protein-complex assay
# Integrin alpha-4/beta-1 [7] = biological target: T5, Integrin alpha-4/beta-1 (Homo sapiens, UniProt P05556+P13612); test: Inhibition of recombinant human Integrin alpha4beta1 using TMB as substrate incubated for 2 hrs in presence of VCAM-1 by ELISA; type: protein-complex assay
# T5 sequence (P05556 whole entry): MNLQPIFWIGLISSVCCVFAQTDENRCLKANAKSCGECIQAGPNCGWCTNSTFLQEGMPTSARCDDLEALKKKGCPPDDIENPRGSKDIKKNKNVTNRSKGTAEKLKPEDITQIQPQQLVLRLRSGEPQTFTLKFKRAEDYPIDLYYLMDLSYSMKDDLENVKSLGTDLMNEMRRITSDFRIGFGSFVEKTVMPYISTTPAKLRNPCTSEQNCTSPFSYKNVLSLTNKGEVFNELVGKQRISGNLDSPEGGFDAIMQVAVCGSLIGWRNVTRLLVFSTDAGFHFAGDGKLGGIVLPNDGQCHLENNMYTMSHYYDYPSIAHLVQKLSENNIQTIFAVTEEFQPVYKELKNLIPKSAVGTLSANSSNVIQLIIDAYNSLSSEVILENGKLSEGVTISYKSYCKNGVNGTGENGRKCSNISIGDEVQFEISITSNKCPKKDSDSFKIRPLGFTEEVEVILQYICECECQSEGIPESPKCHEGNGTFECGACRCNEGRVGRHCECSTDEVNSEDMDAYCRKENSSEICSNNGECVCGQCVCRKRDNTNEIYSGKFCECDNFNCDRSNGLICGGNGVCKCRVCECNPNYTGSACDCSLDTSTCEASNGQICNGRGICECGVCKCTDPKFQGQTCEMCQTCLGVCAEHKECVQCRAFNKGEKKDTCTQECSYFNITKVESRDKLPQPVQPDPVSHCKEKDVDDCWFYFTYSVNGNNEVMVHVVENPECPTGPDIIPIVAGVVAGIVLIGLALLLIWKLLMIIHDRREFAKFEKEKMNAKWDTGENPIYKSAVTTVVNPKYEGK
# T5 sequence (P13612 whole entry): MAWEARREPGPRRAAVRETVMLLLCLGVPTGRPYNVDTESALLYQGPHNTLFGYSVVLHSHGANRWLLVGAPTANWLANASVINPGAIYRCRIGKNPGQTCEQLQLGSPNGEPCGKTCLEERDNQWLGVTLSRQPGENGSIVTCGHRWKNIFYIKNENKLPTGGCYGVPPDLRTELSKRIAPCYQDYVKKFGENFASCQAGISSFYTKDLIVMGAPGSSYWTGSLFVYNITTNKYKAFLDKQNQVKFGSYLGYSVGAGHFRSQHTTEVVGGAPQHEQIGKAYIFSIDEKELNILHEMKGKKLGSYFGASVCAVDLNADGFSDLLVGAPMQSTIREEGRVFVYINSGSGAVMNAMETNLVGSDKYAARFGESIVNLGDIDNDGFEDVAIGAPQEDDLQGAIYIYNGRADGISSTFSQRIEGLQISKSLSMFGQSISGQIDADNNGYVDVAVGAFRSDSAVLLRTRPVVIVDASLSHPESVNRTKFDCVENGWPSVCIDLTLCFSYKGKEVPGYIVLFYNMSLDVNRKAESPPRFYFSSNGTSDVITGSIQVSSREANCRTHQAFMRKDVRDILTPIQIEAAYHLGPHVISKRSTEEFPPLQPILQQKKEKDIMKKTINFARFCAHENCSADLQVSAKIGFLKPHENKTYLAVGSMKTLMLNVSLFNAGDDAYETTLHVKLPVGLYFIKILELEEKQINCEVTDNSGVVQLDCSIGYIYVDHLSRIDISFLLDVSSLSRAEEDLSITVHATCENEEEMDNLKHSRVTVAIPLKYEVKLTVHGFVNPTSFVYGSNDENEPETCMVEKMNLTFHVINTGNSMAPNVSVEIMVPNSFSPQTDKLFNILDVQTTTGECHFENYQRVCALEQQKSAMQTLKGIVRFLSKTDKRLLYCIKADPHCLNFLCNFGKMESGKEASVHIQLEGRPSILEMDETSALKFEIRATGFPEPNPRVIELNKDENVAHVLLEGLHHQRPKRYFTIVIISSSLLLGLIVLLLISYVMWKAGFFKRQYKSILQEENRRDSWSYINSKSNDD
# Integrin alpha-5/beta-1 [8] = biological target: T6, Integrin alpha-5/beta-1 (Homo sapiens, UniProt P05556+P08648); test: Inhibition of recombinant human Integrin alpha5beta1 using TMB as substrate incubated for 2 hrs in presence of fibronectin by ELISA; type: protein-complex assay
# T6 sequence (P05556 21-798 limits assumed): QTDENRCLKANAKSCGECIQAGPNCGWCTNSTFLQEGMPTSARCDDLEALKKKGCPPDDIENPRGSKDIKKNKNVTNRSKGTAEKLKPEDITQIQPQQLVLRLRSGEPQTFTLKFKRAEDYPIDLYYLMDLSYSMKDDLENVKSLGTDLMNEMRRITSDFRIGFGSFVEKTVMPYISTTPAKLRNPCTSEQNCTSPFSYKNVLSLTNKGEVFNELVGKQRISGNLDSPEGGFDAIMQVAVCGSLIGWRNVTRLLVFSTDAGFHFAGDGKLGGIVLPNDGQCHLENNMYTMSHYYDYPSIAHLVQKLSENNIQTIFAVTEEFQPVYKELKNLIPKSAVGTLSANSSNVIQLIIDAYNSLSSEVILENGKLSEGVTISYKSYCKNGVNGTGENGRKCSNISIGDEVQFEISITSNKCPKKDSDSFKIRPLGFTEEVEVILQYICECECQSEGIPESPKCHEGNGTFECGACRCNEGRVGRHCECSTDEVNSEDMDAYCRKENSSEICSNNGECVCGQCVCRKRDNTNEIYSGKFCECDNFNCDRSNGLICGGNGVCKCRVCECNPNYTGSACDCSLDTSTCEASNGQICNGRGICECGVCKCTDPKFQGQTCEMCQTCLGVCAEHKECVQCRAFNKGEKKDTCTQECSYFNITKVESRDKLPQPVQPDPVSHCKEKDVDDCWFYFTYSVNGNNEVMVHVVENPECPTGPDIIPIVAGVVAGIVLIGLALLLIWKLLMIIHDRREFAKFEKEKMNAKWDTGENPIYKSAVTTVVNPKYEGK
# T6 sequence (P08648 42-894 limits assumed): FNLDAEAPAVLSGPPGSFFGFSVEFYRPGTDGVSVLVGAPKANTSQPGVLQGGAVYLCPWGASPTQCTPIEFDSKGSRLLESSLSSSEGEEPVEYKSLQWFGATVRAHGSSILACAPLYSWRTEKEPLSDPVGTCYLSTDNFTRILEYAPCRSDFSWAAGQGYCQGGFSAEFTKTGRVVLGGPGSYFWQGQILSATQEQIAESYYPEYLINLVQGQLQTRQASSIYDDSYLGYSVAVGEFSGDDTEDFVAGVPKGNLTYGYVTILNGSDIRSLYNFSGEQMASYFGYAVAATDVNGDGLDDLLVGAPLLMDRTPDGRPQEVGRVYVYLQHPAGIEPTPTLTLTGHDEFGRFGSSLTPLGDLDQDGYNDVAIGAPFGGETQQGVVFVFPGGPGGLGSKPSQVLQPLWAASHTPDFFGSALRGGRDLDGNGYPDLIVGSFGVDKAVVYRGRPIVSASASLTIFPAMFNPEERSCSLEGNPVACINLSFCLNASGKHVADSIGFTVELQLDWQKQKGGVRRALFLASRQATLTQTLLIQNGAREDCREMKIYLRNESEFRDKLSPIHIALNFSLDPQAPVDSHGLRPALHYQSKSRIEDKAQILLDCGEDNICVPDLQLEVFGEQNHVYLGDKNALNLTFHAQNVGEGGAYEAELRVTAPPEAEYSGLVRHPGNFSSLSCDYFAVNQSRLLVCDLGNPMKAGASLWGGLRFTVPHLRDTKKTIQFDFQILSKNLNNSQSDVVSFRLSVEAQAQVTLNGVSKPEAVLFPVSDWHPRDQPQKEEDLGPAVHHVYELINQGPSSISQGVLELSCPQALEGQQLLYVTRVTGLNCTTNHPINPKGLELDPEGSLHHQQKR
# T6 sequence (P08648 895-1049 limits assumed): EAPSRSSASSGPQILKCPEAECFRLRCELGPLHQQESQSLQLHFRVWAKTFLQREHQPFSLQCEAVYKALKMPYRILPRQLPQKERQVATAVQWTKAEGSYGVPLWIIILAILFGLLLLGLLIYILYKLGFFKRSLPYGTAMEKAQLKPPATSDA
# Integrin alpha-V/beta-1 [9] = biological target: T1, Integrin alpha-V/beta-1; test: Inhibition of recombinant human Integrin alphaVbeta1 mediated cellular adhesion expressed in CHO-B2 cell incubated for 24 hrs in presence of Ca2+ and Mg2+ by real-time cell analysis; type: cell-based
# Integrin alpha-4/beta-1 [10] = biological target: T5, Integrin alpha-4/beta-1; test: Inhibition of Integrin alpha4beta1 mediated cellular adhesion in human Jurkat cells incubated for 24 hrs in presence of Ca2+ and Mg2+ by real-time cell analysis; type: cell-based
# Integrin alpha-5/beta-1 [11] = biological target: T6, Integrin alpha-5/beta-1; test: Inhibition of Integrin alpha5beta1 mediated cellular adhesion in human HCT-116 cells incubated for 24 hrs in presence of Ca2+ and Mg2+ by real-time cell analysis; type: cell-based
# Integrin alpha-8/beta-1 = Integrin alpha-8/beta-1 (Homo sapiens, UniProt P05556+P53708); test: Inhibition of recombinant human Integrin alpha8beta1 mediated cellular adhesion expressed in HEK cells incubated for 24 hrs in presence of Ca2+ and Mg2+ by real-time cell analysis; type: cell-based
# Integrin alpha-V/beta-3 [12] = biological target: T2, Integrin alpha-V/beta-3; test: Inhibition of recombinant human Integrin alphaVbeta3 mediated cellular adhesion expressed in HEK cells incubated for 24 hrs in presence of Ca2+ and Mg2+ by real-time cell analysis; type: cell-based
# Integrin alpha-V/beta-1 [13] = biological target: T1, Integrin alpha-V/beta-1; test: Inhibition of human Integrin alphaVbeta1 expressed in CHO-B2 cell cocultured with TGF-beta expressing Mv1Lu cells assessed as inhibition of integrin alphaVbeta1 mediated TGF-beta transactivation by luciferase assay; type: cell-based
# Integrin alpha-V/beta-6 [14] = biological target: T3, Integrin alpha-V/beta-6; test: Inhibition of human Integrin alphaVbeta6 expressed in SW480 cells cocultured with TGF-beta expressing Mv1Lu cells assessed as inhibition of integrin alphaVbeta6 mediated TGF-beta transactivation by luciferase assay; type: cell-based
# Integrin alpha-V/beta-8 [15] = biological target: T4, Integrin alpha-V/beta-8; test: Inhibition of Integrin alphaVbeta8 in human SNB-19 cells cocultured with TGF-beta expressing Mv1Lu cells assessed as inhibition of integrin alphaVbeta8 mediated TGF-beta transactivation by luciferase assay; type: cell-based
# [16] = Half life in Wistar-Han rat at 1 mg/kg,iv administration; type: ADME, organism-based; conditions: in vivo
# [17] = Clearance in Wistar-Han rat at 1 mg/kg,iv administration; type: ADME, organism-based; conditions: in vivo
# [18] = AUC (0 to 24 hrs) in Wistar-Han rat at 1 mg/kg,iv administration; type: ADME, organism-based; conditions: in vivo
# [19] = AUC (0 to infinity) in Wistar-Han rat at 1 mg/kg,iv administration; type: ADME, organism-based; conditions: in vivo
# [20] = Volume of distribution at steady state in Wistar-Han rat at 1 mg/kg,iv administration; type: ADME, organism-based; conditions: in vivo, read-out: Vdss
# [21] = Half life in Sprague-Dawley rat at 30 mg/kg,sc administration; type: ADME, organism-based; conditions: in vivo
# [22] = Tmax in Sprague-Dawley rat at 30 mg/kg,sc administration; type: ADME, organism-based; conditions: in vivo
# [23] = Cmax in Sprague-Dawley rat at 30 mg/kg,sc administration; type: ADME, organism-based; conditions: in vivo
# [24] = AUC (0 to 24 hrs) in Sprague-Dawley rat at 30 mg/kg,sc administration; type: ADME, organism-based; conditions: in vivo
# [25] = AUC (0 to infinity) in Sprague-Dawley rat at 30 mg/kg,sc administration; type: ADME, organism-based; conditions: in vivo
# [26] = Bioavailability in Sprague-Dawley rat at 30 mg/kg,sc administration; type: ADME, organism-based; conditions: in vivo
# [27] = Half life in Wistar rat at 10 mg/kg,po administration; type: ADME, organism-based; conditions: in vivo
# [28] = Tmax in Wistar rat at 10 mg/kg,po administration; type: ADME, organism-based; conditions: in vivo
# [29] = Cmax in Wistar rat at 10 mg/kg,po administration; type: ADME, organism-based; conditions: in vivo
# [30] = AUC (0 to 24 hrs) in Wistar rat at 10 mg/kg,po administration; type: ADME, organism-based; conditions: in vivo
# [31] = AUC (0 to infinity) in Wistar rat at 10 mg/kg,po administration; type: ADME, organism-based; conditions: in vivo
# [32] = Oral bioavailability in Wistar rat at 10 mg/kg administration; type: ADME, organism-based; conditions: in vivo
# Rattus norvegicus = test: Antifibrotic activity against choline-deficient high-fat diet induced Wistar-Han rat liver fibrosis model assessed as reduction in liver fibrosis at sc administration for 6 weeks from period of week 7 to 12 during high-fat diet treatment by picrosirius red staining based analysis; type: functional, organism-based
# [33] = Drug concentration in choline-deficient high-fat diet induced Wistar-Han rat plasma at sc administration for 6 weeks from period of week 7 to 12 during high-fat diet treatment; type: ADME, organism-based; conditions: in vivo, 1008 h
# [34] = Drug concentration in choline-deficient high-fat diet induced Wistar-Han rat liver at sc administration for 6 weeks from period of week 7 to 12 during high-fat diet treatment; type: ADME, organism-based; conditions: in vivo, 1008 h
# T1 sequence (P05556 21-798 limits assumed): as the sequence (P05556 21-798 limits assumed) above
# T1 sequence (P06756 31-889 limits assumed): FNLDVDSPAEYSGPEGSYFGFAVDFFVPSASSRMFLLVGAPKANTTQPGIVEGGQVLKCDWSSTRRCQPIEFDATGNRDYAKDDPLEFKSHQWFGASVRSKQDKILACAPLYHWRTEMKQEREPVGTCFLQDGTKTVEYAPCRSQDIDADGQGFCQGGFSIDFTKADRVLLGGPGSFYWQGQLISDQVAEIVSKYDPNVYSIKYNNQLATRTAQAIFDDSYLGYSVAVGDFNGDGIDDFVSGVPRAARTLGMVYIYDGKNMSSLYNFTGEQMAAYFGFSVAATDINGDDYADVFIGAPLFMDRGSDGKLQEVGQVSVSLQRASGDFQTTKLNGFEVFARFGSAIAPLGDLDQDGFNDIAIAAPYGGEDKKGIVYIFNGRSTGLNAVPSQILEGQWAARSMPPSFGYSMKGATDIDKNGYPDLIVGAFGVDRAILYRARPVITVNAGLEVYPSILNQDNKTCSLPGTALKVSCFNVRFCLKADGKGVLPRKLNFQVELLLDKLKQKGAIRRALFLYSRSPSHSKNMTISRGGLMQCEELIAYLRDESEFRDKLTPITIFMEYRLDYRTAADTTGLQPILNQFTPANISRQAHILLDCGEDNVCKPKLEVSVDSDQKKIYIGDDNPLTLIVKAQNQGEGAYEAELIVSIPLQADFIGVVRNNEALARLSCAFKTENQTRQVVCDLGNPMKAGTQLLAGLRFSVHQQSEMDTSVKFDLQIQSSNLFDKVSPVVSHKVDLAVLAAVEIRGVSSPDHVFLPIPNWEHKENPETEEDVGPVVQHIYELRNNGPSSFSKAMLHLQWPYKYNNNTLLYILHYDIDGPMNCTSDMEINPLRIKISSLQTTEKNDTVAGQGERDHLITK
# T1 sequence (P06756 891-1048 limits assumed): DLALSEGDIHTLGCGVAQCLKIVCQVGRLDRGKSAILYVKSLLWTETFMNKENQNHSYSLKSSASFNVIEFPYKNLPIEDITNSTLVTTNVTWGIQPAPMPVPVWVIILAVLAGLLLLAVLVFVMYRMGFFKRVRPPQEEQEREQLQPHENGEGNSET
compound,measurement,setting,value
Cc1cnc2[nH]c(=O)n(CC(=O)NC[C@H](NC(=O)c3c(Cl)ccc(C)c3F)C(=O)O)c2c1,IC50,Integrin alpha-V/beta-1 [1],0.0794 µM
same,Papp A→B at 1 h,[2],0.4 ×10⁻⁶ cm/s
same,Papp B→A at 1 h,[3],0.3 ×10⁻⁶ cm/s
O=C(CN1C(=O)Cc2ccccc21)NC[C@H](NC(=O)c1ccccc1Cl)C(=O)O,IC50,Integrin alpha-V/beta-1 [1],> 10 µM
O=C(CN1Cc2ccccc2NC1=O)NC[C@H](NC(=O)c1ccccc1Cl)C(=O)O,IC50,Integrin alpha-V/beta-1 [1],0.398 µM
Cc1cc(C#N)cc(C)c1C(=O)N[C@@H](CNC(=O)Cn1c(=O)[nH]c2ncccc21)C(=O)O,IC50,Integrin alpha-V/beta-1 [1],0.01 µM
same,IC50,Integrin alpha-V/beta-3 [4],> 10 µM
same,IC50,Integrin alpha-V/beta-5,> 10 µM
same,IC50,Integrin alpha-V/beta-6 [5],> 10 µM
same,IC50,Integrin alpha-V/beta-8 [6],> 10 µM
same,IC50,Integrin alpha-4/beta-1 [7],5.01 µM
same,IC50,Integrin alpha-5/beta-1 [8],2.51 µM
Cc1ccc(Cl)c(C(=O)N[C@@H](CNC(=O)Cn2c(=O)[nH]c3cc(F)c(F)cc32)C(=O)O)c1F,IC50,Integrin alpha-V/beta-1 [1],0.001 µM
same,Papp A→B at 1 h,[2],1.2 ×10⁻⁶ cm/s
same,Papp B→A at 1 h,[3],0.2 ×10⁻⁶ cm/s
O=C(NC(CNc1ccc(N2CCNC2=O)cc1)C(=O)O)c1c(Cl)cccc1Cl (racemic),IC50,Integrin alpha-V/beta-1 [1],0.2 µM
same,IC50,Integrin alpha-V/beta-3 [4],3.98 µM
same,IC50,Integrin alpha-V/beta-5,1.26 µM
same,IC50,Integrin alpha-V/beta-6 [5],> 10 µM
same,IC50,Integrin alpha-V/beta-8 [6],7.94 µM
same,IC50,Integrin alpha-4/beta-1 [7],0.2 µM
same,IC50,Integrin alpha-5/beta-1 [8],0.631 µM
O=C(CCCCc1ccc2c(n1)NCCC2)NCC(NC(=O)c1c(Cl)cccc1Cl)C(=O)O (racemic),IC50,Integrin alpha-V/beta-1 [1],0.0002 µM
same,IC50,Integrin alpha-V/beta-3 [4],0.001 µM
same,IC50,Integrin alpha-V/beta-6 [5],< 0.000158 µM
same,IC50,Integrin alpha-V/beta-8 [6],< 0.000158 µM
same,IC50,Integrin alpha-4/beta-1 [7],3.16 µM
Cc1ccc(Cl)c(C(=O)N[C@@H](CNC(=O)Cn2c(=O)[nH]c3nc(C)c(F)cc32)C(=O)O)c1F,IC50,Integrin alpha-V/beta-1 [1],0.000316 µM
same,Papp A→B at 1 h,[2],3 ×10⁻⁶ cm/s
same,Papp B→A at 1 h,[3],3.2 ×10⁻⁶ cm/s
same,IC50,Integrin alpha-V/beta-1 [9],0.427 µM
same,IC50,Integrin alpha-4/beta-1 [10],> 31.6 µM
same,IC50,Integrin alpha-5/beta-1 [11],> 31.6 µM
same,IC50,Integrin alpha-8/beta-1,> 31.6 µM
same,IC50,Integrin alpha-V/beta-3 [12],> 10 µM
same,IC50,Integrin alpha-V/beta-1 [13],0.0437 µM
same,IC50,Integrin alpha-V/beta-6 [14],> 10 µM
same,IC50,Integrin alpha-V/beta-8 [15],9.55 µM
same,half-life,[16],3.32 h
same,clearance,[17],0.38 mL/min/kg
same,AUC(0-t),[18],44000 ng·h/mL
same,AUC(0-inf),[19],44000 ng·h/mL
same,Vd,[20],0.087 L/kg
same,half-life,[21],3.3 h
same,Tmax,[22],4.7 h
same,Cmax,[23],66000 ng/mL
same,AUC(0-t),[24],630000 ng·h/mL
same,AUC(0-inf),[25],630000 ng·h/mL
same,bioavailability,[26],59%
same,half-life,[27],5.2 h
same,Tmax,[28],2.8 h
same,Cmax,[29],390 ng/mL
same,AUC(0-t),[30],4500 ng·h/mL
same,AUC(0-inf),[31],4800 ng·h/mL
same,bioavailability,[32],1.3%
same,Activity,Rattus norvegicus,Dose-Dependent Effect
same,Drug uptake,[33],Dose-Dependent Effect
same,Drug uptake,[34],Dose-Dependent Effect
O=C(NC(CNc1ccccc1)C(=O)O)c1c(Cl)cccc1Cl (stereo unspecified),IC50,Integrin alpha-V/beta-1 [1],0.2 µM
same,IC50,Integrin alpha-V/beta-3 [4],> 10 µM
same,IC50,Integrin alpha-V/beta-5,> 10 µM
same,IC50,Integrin alpha-V/beta-6 [5],> 10 µM
same,IC50,Integrin alpha-V/beta-8 [6],> 10 µM
same,IC50,Integrin alpha-5/beta-1 [8],> 10 µM
N=C(N)NCCCCC(=O)Nc1ccc(C[C@H](NC(=O)[C@@H]2CCCN2S(=O)(=O)c2ccccc2)C(=O)O)cc1,IC50,Integrin alpha-V/beta-1 [9],0.0126 µM
same,IC50,Integrin alpha-4/beta-1 [10],0.0347 µM
same,IC50,Integrin alpha-5/beta-1 [11],1 µM
same,IC50,Integrin alpha-8/beta-1,5.89 µM
same,IC50,Integrin alpha-V/beta-3 [12],> 10 µM
same,IC50,Integrin alpha-V/beta-1 [13],0.01 µM
same,IC50,Integrin alpha-V/beta-6 [14],0.316 µM
same,IC50,Integrin alpha-V/beta-8 [15],1.74 µM
Cc1cc2[nH]c(=O)n(CC(=O)NC[C@H](NC(=O)c3c(Cl)ccc(C)c3F)C(=O)O)c2cc1C,IC50,Integrin alpha-V/beta-1 [1],0.00158 µM
same,Papp A→B at 1 h,[2],0.8 ×10⁻⁶ cm/s
same,Papp B→A at 1 h,[3],0.6 ×10⁻⁶ cm/s
Cc1nc2ccccc2n1CC(=O)NC[C@H](NC(=O)c1ccccc1Cl)C(=O)O,IC50,Integrin alpha-V/beta-1 [1],> 10 µM
